From patent US11000509B2, “Methods and compositions for daily ophthalmic administration of phentolamine to improve visual performance” (Ocuphire Pharma, Inc., priority 2013, dated 2021)
Where a name gives a salt, the structure may show the parent alone. Read-outs that look alike come from different tables or passages of the source. Marks after values point to notes of the source that are not given here.

Columns and labels:
[1] = test system: eyes of patients with pupil size in dim light of greater than 7 mm; experiment: Example 2 clinical study: monocular low contrast visual acuity under photopic conditions (5% tint chart); assay type: in vivo, humans; conditions: for mean low contrast acuity compared to baseline: paired t-test
Procedure: (§1) Sixteen patients were randomized into four groups (of four subjects each). Each group was treated on three successive study visits separated by at least 4 days with one drop of ophthalmic oxymetazoline solution (Visine LR®) in each eye followed by one drop test article in each eye. The test article was a 0.2% (w/v) phentolamine mesylate solution, 0.4% (w/v) phentolamine mesylate solution, 0.8% (w/v) phentolamine mesylate solution, or placebo. Test articles contained the designed amount of phentolamine mesylate in a solution of Tears Naturale II® (from Alcon Labs). Placebo was just Tears Naturale II® (from Alcon Labs). Tears Naturale II® (from Alcon Labs) contains Dextran 70 (0.1% by weight), Hydroxypropyl Methylcellulose 2910 (0.3% by weight), Polyquarternium-1 (0.001% by weight), potassium chloride, water (purified), sodium borate, sodium chloride, and hydrochloric acid and/or sodium hydroxide as necessary to adjust the pH. The patients' eye redness and pupil diameters were recorded at baseline (i.e., prior to treatment administration), and at 30 minutes, 1 hour, 2 hours, 4 hours, and 8 hours after administration of test articles. The incidence of any treatment-emergent adverse events was also recorded. Total study duration was approximately nine hours.
(§2) Eye redness of patients' eyes was evaluated by the research assistant and recorded as a single integer of value 0 (no redness) to 4 (extreme redness) at baseline and each time point after treatment. Pupil diameters were measured to within 0.1 mm for each eye at baseline and each subsequent time point using a NeurOptics™ pupilometer. Monocular high contrast visual acuity was measured for each eye under photopic conditions at baseline and each subsequent time point in a darkened room using a Precision Vision™ High Contrast (100% tint) Visual Acuity Chart (Catalog #2102) backlit by the Precision Vision Illumination Box. Monocular low contrast visual acuity was measured for each eye under photopic conditions at baseline and each subsequent time point in a darkened room using a Precision Vision™ Low Contrast (5% tint) Visual Acuity Chart (Catalog #2186) backlit by the Precision Vision Illumination Box. Effect of treatment on glare was assessed using an experimental test method consisting of a panel with a high wattage central light emitting diode (LED) and a set of 7 lower wattage red LEDs radiating horizontally and vertically from the central light.
Comparisons of changes in mean values within treatment groups were tested for significance using two-tailed paired two sample t-tests with a threshold for significance set at p<0.01 (Bonferroni Correction for multiple paired t-tests). Differences between treatment groups with respect to mean values for pupil size over the course of the study were tested for significance using repeated measure ANOVA (which discards data from subjects lacking any data points). Differences in mean eye redness between treatment groups were evaluated using Kruskal-Wallis nonparametric testing. Differences in means between treatment groups at individual time points were tested for significance using one-way ANOVA.

[2] = test system: eyes of patients with pupil size in dim light of greater than 7 mm; parameters: species or system humans; conditions: human, in vivo
Procedure: as §1, §2
Comparisons of changes in mean values within treatment groups were tested for significance using two-tailed paired two sample t-tests with a threshold for significance set at p<0.01 (Bonferroni Correction for multiple paired t-tests). […] Differences in mean eye redness between treatment groups were evaluated using Kruskal-Wallis nonparametric testing. […]

[3] = 0.2% (w/v) solution, 30 min after treatment
[4] = 0.2% (w/v) solution, 1 hour after treatment
[5] = 0.2% (w/v) solution, 2 hours after treatment
[6] = 0.2% (w/v) solution, 4 hours after treatment
[7] = 0.2% (w/v) solution, 8 hours after treatment
[8] = 0.2% (w/v) solution, Baseline, prior to treatment
[9] = 0.4% (w/v) solution, 30 min after treatment
[10] = 0.4% (w/v) solution, 1 hour after treatment
[11] = 0.4% (w/v) solution, 2 hours after treatment
[12] = 0.4% (w/v) solution, 4 hours after treatment
[13] = 0.4% (w/v) solution, 8 hours after treatment
[14] = 0.4% (w/v) solution, Baseline, prior to treatment
[15] = 0.8% (w/v) solution, 30 min after treatment
[16] = 0.8% (w/v) solution, 1 hour after treatment
[17] = 0.8% (w/v) solution, 2 hours after treatment
[18] = 0.8% (w/v) solution, 4 hours after treatment
[19] = 0.8% (w/v) solution, 8 hours after treatment
[20] = 0.8% (w/v) solution, Baseline, prior to treatment

**Q.** For `Cc1ccc(N(CC2=NCCN2)c2cccc(O)c2)cc1` [Phentolamine Mesylate, phentolamine mesylate], which “Maximum low contrast visual acuity” value [1, 3] is on record?
**A.** The value was −0.10 LogMar.

**Q.** What about the “Mean low contrast visual acuity” value [1, 3] of the same compound?
**A.** The value was −0.35 LogMar.

**Q.** And the “Minimum low contrast visual acuity” value [1, 3]?
**A.** The value was −0.78 LogMar.

**Q.** And the “Maximum low contrast visual acuity” value [1, 4]?
**A.** Its value is −0.08 LogMar.

**Q.** And the “Mean low contrast visual acuity” value [1, 4]?
**A.** Its value is −0.32 LogMar.

**Q.** And the “Minimum low contrast visual acuity” value [1, 4]?
**A.** The value was −0.80 LogMar.

**Q.** What about the “Maximum low contrast visual acuity” value [1, 5] of the same compound?
**A.** Its value is −0.11 LogMar.

**Q.** And the “Mean low contrast visual acuity” value [1, 5]?
**A.** The value was −0.32 LogMar.

**Q.** And the “Minimum low contrast visual acuity” value [1, 5]?
**A.** The value was −0.74 LogMar.

**Q.** And the “Maximum low contrast visual acuity” value [1, 6]?
**A.** Its value is 0.00 LogMar.

**Q.** And the “Mean low contrast visual acuity” value [1, 6]?
**A.** The value was −0.30 LogMar.

**Q.** What about the “Minimum low contrast visual acuity” value [1, 6] of the same compound?
**A.** The value was −0.76 LogMar.

**Q.** What about the “Maximum low contrast visual acuity” value [1, 7] of the same compound?
**A.** The value was −0.08 LogMar.

**Q.** What about the “Mean low contrast visual acuity” value [1, 7] of the same compound?
**A.** Its value is −0.30^e LogMar.

**Q.** And the “Minimum low contrast visual acuity” value [1, 7]?
**A.** Its value is −0.72 LogMar.

**Q.** What about the “Maximum low contrast visual acuity” value [1, 8] of the same compound?
**A.** The value was −0.06 LogMar.

**Q.** And the “Mean low contrast visual acuity” value [1, 8]?
**A.** Its value is −0.34^d LogMar.

**Q.** And the “Minimum low contrast visual acuity” value [1, 8]?
**A.** Its value is −0.80 LogMar.

**Q.** And the “Maximum low contrast visual acuity” value [1, 9]?
**A.** The value was 0.00 LogMar.

**Q.** What about the “Mean low contrast visual acuity” value [1, 9] of the same compound?
**A.** The value was −0.24 LogMar.

**Q.** And the “Minimum low contrast visual acuity” value [1, 9]?
**A.** Its value is −0.70 LogMar.

**Q.** And the “Maximum low contrast visual acuity” value [1, 10]?
**A.** Its value is −0.04 LogMar.

**Q.** What about the “Mean low contrast visual acuity” value [1, 10] of the same compound?
**A.** Its value is −0.24 LogMar.

**Q.** What about the “Minimum low contrast visual acuity” value [1, 10] of the same compound?
**A.** Its value is −0.78 LogMar.

**Q.** What about the “Maximum low contrast visual acuity” value [1, 11] of the same compound?
**A.** The value was 0.00 LogMar.

**Q.** And the “Mean low contrast visual acuity” value [1, 11]?
**A.** The value was −0.22 LogMar.

**Q.** What about the “Minimum low contrast visual acuity” value [1, 11] of the same compound?
**A.** The value was −0.64 LogMar.

**Q.** And the “Maximum low contrast visual acuity” value [1, 12]?
**A.** The value was 0.00 LogMar.

**Q.** And the “Mean low contrast visual acuity” value [1, 12]?
**A.** The value was −0.20 LogMar.

**Q.** And the “Minimum low contrast visual acuity” value [1, 12]?
**A.** The value was −0.70 LogMar.

**Q.** What about the “Maximum low contrast visual acuity” value [1, 13] of the same compound?
**A.** Its value is 0.00 LogMar.

**Q.** And the “Mean low contrast visual acuity” value [1, 13]?
**A.** The value was −0.22 LogMar.

**Q.** What about the “Minimum low contrast visual acuity” value [1, 13] of the same compound?
**A.** The value was −0.64 LogMar.

**Q.** What about the “Maximum low contrast visual acuity” value [1, 14] of the same compound?
**A.** Its value is −0.10 LogMar.

**Q.** What about the “Mean low contrast visual acuity” value [1, 14] of the same compound?
**A.** The value was −0.28 LogMar.

**Q.** What about the “Minimum low contrast visual acuity” value [1, 14] of the same compound?
**A.** Its value is −0.74 LogMar.

**Q.** What about the “mean low contrast acuity compared to baseline” value ([1]; 0.4% (w/v), 1, 2, 4, and 8 hours post treatment) of the same compound?
**A.** Its value is “significant increases”.

**Q.** What about the “Maximum low contrast visual acuity” value [1, 15] of the same compound?
**A.** Its value is −0.02 LogMar.

**Q.** And the “Mean low contrast visual acuity” value [1, 15]?
**A.** Its value is −0.28 LogMar.

**Q.** And the “Minimum low contrast visual acuity” value [1, 15]?
**A.** The value was −0.76 LogMar.

**Q.** What about the “Maximum low contrast visual acuity” value [1, 16] of the same compound?
**A.** Its value is 0.00 LogMar.

**Q.** And the “Mean low contrast visual acuity” value [1, 16]?
**A.** Its value is −0.25 LogMar.

**Q.** What about the “Minimum low contrast visual acuity” value [1, 16] of the same compound?
**A.** The value was −0.62 LogMar.

**Q.** What about the “Maximum low contrast visual acuity” value [1, 17] of the same compound?
**A.** Its value is 0.00 LogMar.

**Q.** And the “Mean low contrast visual acuity” value [1, 17]?
**A.** The value was −0.22 LogMar.

**Q.** And the “Minimum low contrast visual acuity” value [1, 17]?
**A.** Its value is −0.60 LogMar.

**Q.** And the “Maximum low contrast visual acuity” value [1, 18]?
**A.** Its value is 0.00 LogMar.

**Q.** What about the “Mean low contrast visual acuity” value [1, 18] of the same compound?
**A.** The value was −0.22 LogMar.

**Q.** What about the “Minimum low contrast visual acuity” value [1, 18] of the same compound?
**A.** Its value is −0.70 LogMar.

**Q.** And the “Maximum low contrast visual acuity” value [1, 19]?
**A.** The value was 0.00 LogMar.

**Q.** What about the “Mean low contrast visual acuity” value [1, 19] of the same compound?
**A.** Its value is −0.25 LogMar.

**Q.** What about the “Minimum low contrast visual acuity” value [1, 19] of the same compound?
**A.** Its value is −0.78 LogMar.

**Q.** And the “Maximum low contrast visual acuity” value [1, 20]?
**A.** Its value is −0.11 LogMar.

**Q.** And the “Mean low contrast visual acuity” value [1, 20]?
**A.** Its value is −0.34 LogMar.

**Q.** What about the “Minimum low contrast visual acuity” value [1, 20] of the same compound?
**A.** The value was −0.78 LogMar.

**Q.** And the “mean low contrast acuity compared to baseline” value ([1]; 0.8% (w/v), all post-treatment time points)?
**A.** Its value is “significant increases”.

**Q.** What about the “maximal mean increase in low contrast visual acuity” value ([1]; 0.8% (w/v), at 2 hours) of the same compound?
**A.** The value was 0.12 Log Mar.

**Q.** And the “improvement in low contrast vision” value ([1]; 0.8% (w/v), at 2 hours, equivalent of the maximal mean increase)?
**A.** Its value is ~6 letters on a Snellen chart.

**Q.** What about the “mean low contrast visual acuity, 0.2% (w/v) versus 0.4% and 0.8% (w/v) (ad hoc Fisher's test)” value ([1]; 2 hours post-dosing, P<0.05) of the same compound?
**A.** Its value is “significant differences”.

**Q.** And the “Range of eye redness scores” value [2]?
**A.** Its value is 0-1.

**Q.** What about the eye redness [2] of the same compound?
**A.** The eye redness was “modest increase in eye redness”.

**Q.** What about the “mean eye redness versus placebo” value [2] of the same compound?
**A.** Its value is “did not differ from placebo”.

**Q.** And the “Range of eye redness scores” value ([2]; 30 min)?
**A.** Its value is 0-1.
